# In patent US8183262B2, “Pyridine derivatives as mGluR2 antagonists” (Hoffmann-La Roche Inc., priority 2007, dated 2012):
row,SMILES,melting point
1,"Cc1cc(-c2ccc(C(F)(F)F)cc2)nc(-n2cnc(-c3ccc(S(N)(=O)=O)s3)c2)n1 [Example 191, 5-{1-[4-Methyl-6-(4-trifluoromethyl-phenyl)-pyrimidin-2-yl]-1H-imidazol-4-yl}-thiophene-2-sulfonic acid amide]",277 °C
2,"Cc1cc(-c2ccc(Cl)cc2)nc(-c2ccnc(-c3ccc(S(N)(=O)=O)s3)c2)n1 [Example 192, 5-{4-[4-(4-Chloro-phenyl)-6-methyl-pyrimidin-2-yl]-pyridin-2-yl}-thiophene-2-sulfonic acid amide]",232.5 °C
3,"Cc1cc(-c2ccc(Cl)c(Cl)c2)nc(-c2cccc(-c3cccc(S(N)(=O)=O)c3)c2)n1 [Example 193, 3′-[4-(3,4-Dichloro-phenyl)-6-methyl-pyrimidin-2-yl]-biphenyl-3-sulfonic acid amide]",206.5 °C
4,"Cc1cc(-c2ccc(Cl)c(Cl)c2)nc(-c2ccnc(-c3cccc(S(N)(=O)=O)c3)c2)n1 [Example 194, 3-{4-[4-(3,4-Dichloro-phenyl)-6-methyl-pyrimidin-2-yl]-pyridin-2-yl}-benzenesulfonamide]",202.5 °C
5,"Cc1cc(-c2ccc(Cl)c(Cl)c2)nc(-c2cccc(-c3ccc(S(N)(=O)=O)s3)c2)n1 [Example 195, 5-{3-[4-(3,4-Dichloro-phenyl)-6-methyl-pyrimidin-2-yl]-phenyl}-thiophene-2-sulfonic acid Amide]",238 °C
6,"Cc1cc(-c2ccc(Cl)c(Cl)c2)nc(-c2ccnc(-c3ccc(S(N)(=O)=O)s3)c2)n1 [Example 196, 5-{4-[4-(3,4-Dichloro-phenyl)-6-methyl-pyrimidin-2-yl]-pyridin-2-yl}-thiophene-2-sulfonic acid amide]",267 °C
7,"Cc1cc(-c2ccc(C(F)(F)F)cc2)nc(-c2ccnc(-c3ccc(S(N)(=O)=O)s3)c2)n1 [Example 197, 5-{4-[4-Methyl-6-(4-trifluoromethyl-phenyl)-pyrimidin-2-yl]-pyridin-2-yl}-thiophene-2-sulfonic acid amide]",263.5 °C
8,"Cc1cc(-c2ccc(Cl)c(Cl)c2)nc(-n2cnc(-c3cccc(S(N)(=O)=O)c3)c2)n1 [Example 198, 3-{1-[4-(3,4-Dichloro-phenyl)-6-methyl-pyrimidin-2-yl]-1H-imidazol-4-yl}-benzenesulfonamide]",210 °C
9,"Cc1cc(-c2ccc(Cl)c(Cl)c2)nc(-n2cnc(-c3ccc(S(N)(=O)=O)cc3)c2)n1 [Example 199, 4-{1-[4-(3,4-Dichloro-phenyl)-6-methyl-pyrimidin-2-yl]-1H-imidazol-4-yl}-benzenesulfonamide]",282.5 °C
10,"Cc1cc(-c2ccc(Cl)cc2)nc(-n2cnc(-c3ncc(S(N)(=O)=O)s3)c2)n1 [Example 200, 2-{1-[4-(4-Chloro-phenyl)-6-methyl-pyrimidin-2-yl]-1H-imidazol-4-yl}-thiazole-5-sulfonic acid amide]",255.5 °C
11,"NS(=O)(=O)c1cccc(-c2cccc(-c3nc(-c4ccc(Cl)c(Cl)c4)cc(C(F)(F)F)n3)c2)c1 [Example 202, 3′-[4-(3,4-Dichloro-phenyl)-6-trifluoromethyl-pyrimidin-2-yl]-biphenyl-3-sulfonic acid amide]",241 °C
12,"NS(=O)(=O)c1cccc(-c2cc(-c3nc(-c4ccc(Cl)c(Cl)c4)cc(C(F)(F)F)n3)ccn2)c1 [Example 203, 3-{4-[4-(3,4-Dichloro-phenyl)-6-trifluoromethyl-pyrimidin-2-yl]-pyridin-2-yl}-benzenesulfonamide]",247 °C
13,"NS(=O)(=O)c1ccc(-c2cccc(-c3nc(-c4ccc(Cl)c(Cl)c4)cc(C(F)(F)F)n3)c2)s1 [Example 204, 5-{3-[4-(3,4-Dichloro-phenyl)-6-trifluoromethyl-pyrimidin-2-yl]-phenyl}-thiophene-2-sulfonic acid amide]",203 °C
14,"NS(=O)(=O)c1ccc(-c2cc(-c3nc(-c4ccc(Cl)c(Cl)c4)cc(C(F)(F)F)n3)ccn2)s1 [Example 205, 5-{4-[4-(3,4-Dichloro-phenyl)-6-trifluoromethyl-pyrimidin-2-yl]-pyridin-2-yl}-thiophene-2-sulfonic acid amide]",266 °C
15,"Cc1cc(-c2cc(C(F)(F)F)nc(-c3cccc(-c4cccc(S(N)(=O)=O)c4)c3)n2)ccc1C(F)(F)F [Example 206, 3′-[4-(3-Methyl-4-trifluoromethyl-phenyl)-6-trifluoromethyl-pyrimidin-2-yl]-biphenyl-3-sulfonic acid amide]",205 °C
16,"Cc1cc(-c2cc(C(F)(F)F)nc(-c3cccc(-c4ccc(S(N)(=O)=O)s4)c3)n2)ccc1C(F)(F)F [Example 207, 5-{3-[4-(3-Methyl-4-trifluoromethyl-phenyl)-6-trifluoromethyl-pyrimidin-2-yl]-phenyl}-thiophene-2-sulfonic acid amide]",216 °C
17,"NS(=O)(=O)c1ccc(-c2cn(-c3nc(-c4ccc(Cl)c(Cl)c4)cc(C(F)(F)F)n3)cn2)s1 [Example 208, 5-{1-[4-(3,4-Dichloro-phenyl)-6-trifluoromethyl-pyrimidin-2-yl]-1H-imidazol-4-yl}-thiophene-2-sulfonic acid amide]",282 °C (dec.)

# Next, values leading:
row,melting point,SMILES
1,260 °C,"Cc1cc(-c2cc(C(F)(F)F)nc(-n3cnc(-c4ccc(S(N)(=O)=O)s4)c3)n2)ccc1C(F)(F)F [Example 209, 5-{1-[4-(3-Methyl-4-trifluoromethyl-phenyl)-6-trifluoromethyl-pyrimidin-2-yl]-1H-imidazol-4-yl}-thiophene-2-sulfonic acid amide]"
2,334 °C,"NS(=O)(=O)c1ccc(-c2cn(-c3nc(-c4ccc(Cl)c(Cl)c4)cc(C(F)(F)F)n3)cn2)cc1 [Example 211, 4-{1-[4-(3,4-Dichloro-phenyl)-6-trifluoromethyl-pyrimidin-2-yl]-1H-imidazol-4-yl}-benzenesulfonamide]"
3,287 °C,"Cc1cc(-c2cc(C(F)(F)F)nc(-n3cnc(-c4ccc(S(N)(=O)=O)cc4)c3)n2)ccc1C(F)(F)F [Example 212, 4-{1-[4-(3-Methyl-4-trifluoromethyl-phenyl)-6-trifluoromethyl-pyrimidin-2-yl]-1H-imidazol-4-yl}-benzenesulfonamide]"
4,180 °C,"Cc1cc(-c2cc(C(F)(F)F)nc(-n3cnc(-c4cccc(S(N)(=O)=O)c4)c3)n2)ccc1C(F)(F)F [Example 213, 3-{1-[4-(3-Methyl-4-trifluoromethyl-phenyl)-6-trifluoromethyl-pyrimidin-2-yl]-1H-imidazol-4-yl}-benzenesulfonamide]"
5,213 °C,"Cc1cc(-c2ccc(Cl)c(Cl)c2)nc(-n2cnc(-c3cccc(S(C)(=O)=O)c3)c2)n1 [Example 214, 4-(3,4-Dichloro-phenyl)-2-[4-(3-methanesulfonyl-phenyl)-imidazol-1-yl]-6-methyl-pyrimidine]"
6,239 °C,"NS(=O)(=O)c1cccc(-c2cn(-c3nc(-c4ccc(Cl)c(Cl)c4)cc(C(F)(F)F)n3)cn2)c1 [Example 215, 3-{1-[4-(3,4-Dichloro-phenyl)-6-trifluoromethyl-pyrimidin-2-yl]-1H-imidazol-4-yl}-benzenesulfonamide]"
7,253.5 °C,"Cc1cc(-c2ccc(Cl)c(Cl)c2)nc(-n2cnc(-c3ccc(S(N)(=O)=O)s3)c2)n1 [Example 216, 5-{1-[4-(3,4-Dichloro-phenyl)-6-methyl-pyrimidin-2-yl]-1H-imidazol-4-yl}-thiophene-2-sulfonic acid amide]"
8,231 °C,"CS(=O)(=O)c1cccc(-c2cn(-c3nc(-c4ccc(C(F)(F)F)cc4)cc(C(F)(F)F)n3)cn2)c1 [Example 217, 2-[4-(3-Methanesulfonyl-phenyl)-imidazol-1-yl]-4-trifluoromethyl-6-(4-trifluoromethyl-phenyl)-pyrimidine]"
9,183.5 °C,"CS(=O)(=O)c1cccc(-c2cccc(-c3nc(-c4ccc(C(F)(F)F)cc4)cc(C(F)(F)F)n3)c2)c1 [Example 219, 2-(3′-Methanesulfonyl-biphenyl-3-yl)-4-trifluoromethyl-6-(4-trifluoromethyl-phenyl)-pyrimidine]"
10,156.5 °C,"Nc1cccc(-c2cccc(-c3nc(-c4ccc(C(F)(F)F)cc4)cc(C(F)(F)F)n3)c2)c1 [Example 220, 3′-[4-Trifluoromethyl-6-(4-trifluoromethyl-phenyl)-pyrimidin-2-yl]-biphenyl-3-ylamine]"
11,219 °C (dec.),"Cc1cc(-c2ccc(Cl)c(C)c2)nc(-n2cnc(-c3cccc(S(N)(=O)=O)c3)c2)n1 [Example 224, 3-{1-[4-(4-Chloro-3-methyl-phenyl)-6-methyl-pyrimidin-2-yl]-1H-imidazol-4-yl}-benzenesulfonamide]"
12,267 °C (dec.),"Cc1cc(-c2ccc(Cl)c(C)c2)nc(-n2cnc(-c3ccc(S(N)(=O)=O)s3)c2)n1 [Example 225, 5-{1-[4-(4-Chloro-3-methyl-phenyl)-6-methyl-pyrimidin-2-yl]-1H-imidazol-4-yl}-thiophene-2-sulfonic acid amide]"
13,202 °C (dec.),"Cc1cc(-c2ccc(Cl)c(C)c2)nc(-n2cnc(-c3ccc(N)nc3)c2)n1 [Example 226, 5-{1-[4-(4-Chloro-3-methyl-phenyl)-6-methyl-pyrimidin-2-yl]-1H-imidazol-4-yl}-pyridin-2-ylamine]"
14,76 to 95 °C,"Cc1cc(-c2ccc(Cl)cc2)cc(-c2cccc(-c3ccc(N)nc3)c2)n1 [Example 229, 5-{3-[4-(4-Chloro-phenyl)-6-methyl-pyridin-2-yl]-phenyl}-pyridin-2-ylamine]"
15,191 °C,"Cc1cc(-c2ccc(C(F)(F)F)cc2)cc(-c2nc(-c3ccc(N)nc3)cs2)n1 [Example 230, 5-{2-[6-Methyl-4-(4-trifluoromethyl-phenyl)-pyridin-2-yl]-thiazol-4-yl}-pyridin-2-ylamine]"
16,> 250 °C,"Cc1cc(-c2ccc(C(F)(F)F)cc2)cc(-c2nc(-c3cnc(N)nc3)cs2)n1 [Example 231, 5-{2-[6-Methyl-4-(4-trifluoromethyl-phenyl)-pyridin-2-yl]-thiazol-4-yl}-pyrimidin-2-ylamine]"
17,166 °C,"Nc1ccc(-c2cccc(-c3cc(-c4ccc(C(F)(F)F)cc4)cc(C(F)(F)F)n3)c2)cn1 [Example 232, 5-{3-[6-Trifluoromethyl-4-(4-trifluoromethyl-phenyl)-pyridin-2-yl]-phenyl}-pyridin-2-ylamine]"
